Each structure is given as a SMILES string. Several values for one entry are separate records, joined by “and”; a condition that tells them apart may be missing. Equal values may be shown once.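 Exposure lasted 48 hours, with cells grown in 96-well plates and compounds tested at five concentrations. GI50 = concentration required for 50% inhibition of growth. At the TGI there is no net growth.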

Assay in all cases: NCI tumour cell line growth inhibition, 48 h
The subject of assay [1] is 786-0 renal.
Assay [2] deals with HL-60(TB) leukemia.
In assay [3] the test system is HOP-62 NSCLC.
The test system of assay [4] is MALME-3M melanoma.
Assay [5] deals with NCI-H522 lung.
Assay [6] concerns OVCAR-3 ovarian.
For assay [7], the system named is SK-MEL-5 melanoma.
Assay [8] has as its system SK-OV-3 ovarian.
Assay [9] has as its system SR leukemia.
Assay [10] concerns UACC-62 melanoma.

For `O=C(N/N=C/c1c(Cl)cccc1Cl)c1ccc(C(F)(F)F)nc1Nc1cccc(C(F)(F)F)c1`, the GI50 was 0.856 µM in assay [1]; 0.552 µM in [2]; 1.29 µM in assay [3]; 2.17 µM in [4]; 1.76 µM in [5]; 0.284 µM in assay [6]. For the same compound, the GI50 was 0.829 µM in assay [7], 1.69 µM in assay [8], 0.457 µM in assay [9] and 1.39 µM in assay [10]. Further, the TGI in assay [1] was 3.25 µM; in assay [3], 14.4 µM; in assay [4] it was 9.23 µM; in assay [5], more than 33.6 µM; in assay [6], 6.47 µM; in assay [7] it was 2.84 µM. The values for the TGI in assay [8], in [9] and in assay [10] were 6.3 µM, 14.4 µM and 4.12 µM, respectively.
On to `CCOc1ccccc1NC(=O)C(C#N)C1=C(Cl)C(=O)c2ccccc2C1=O` (stereo unspecified), for which the results for the GI50 in assay [1], in assay [2] and in assay [6] were 0.899 µM, 2.85 µM and 2 µM, respectively. Also, the TGI was 3.18 µM and 2.19 µM in [1]; 19.7 µM in [3]; 2.91 µM and 3.08 µM in assay [4]; 4.22 µM in assay [5]; 2.97 µM and 5.04 µM in assay [6]; 2.86 µM and 3.13 µM in assay [7]. Moreover, the TGI in assay [8] is 41.5 µM; in [9], 3.73 µM; in assay [10] it was 3.24 µM and 3.36 µM.
Turning to `CC(C)C1=C2CCC3(C)C(CCC4C5C6OCC5(CCC6(C)C)CCC43C)C2(C)CC1` (stereo unspecified), the TGI in assay [1] came to 33.7 µM; in assay [2], 27.9 µM; in assay [3], 38.9 µM; in assay [4] it was 38.6 µM; in assay [5], 36.5 µM; in [6], 51 µM. In addition, the TGI in [7] was 50.2 µM; in assay [8] it was more than 100 µM; in assay [9] it was 30.6 µM; in assay [10] it was 41.3 µM.
`O=[N+]([O-])c1ccc(CSCc2ccc(Cl)cc2)cc1`: the TGI in [1], in assay [2], in assay [3], in assay [4], in [5] and in assay [6] was more than 100 µM each time. Further, the TGI in [7], in assay [8], in assay [9] and in [10] was more than 100 µM each time.
Take `O=C(Nc1ccc(Cl)c(Cl)c1)Nc1ccccc1O`: the GI50 is 25.2 µM in assay [1]; 3.7 µM in assay [2]; 10.6 µM in assay [3]; 4.82 µM in assay [4]; 2.65 µM in [5]; 3.24 µM in [6]. For the same compound, the GI50 in [7] is 7.71 µM; in assay [8], 16 µM; in [9] it was 4.57 µM; in assay [10] it was 5.12 µM. Further, the TGI in assay [1] worked out at 75.1 µM; in [2], 36.2 µM; in assay [3], 24.1 µM; in assay [4] it was 20.3 µM; in assay [5], 15.5 µM; in assay [6] it was 13.5 µM. The TGI worked out at 20.5 µM in [7], 40.8 µM in [8], 24.8 µM in [9] and 19.8 µM in [10].
Turning to `CC1C(=O)OC2CC[N+]3([O-])CC=C(COC(=O)C(C)(O)C1(C)O)C23` (stereo unspecified), the TGI in [1], in assay [2], in assay [3], in assay [4], in assay [5] and in assay [6] was more than 100 µM throughout. Further, the TGI in assay [7], in assay [8], in assay [9] and in assay [10] was more than 100 µM each time.

Source of the values: PubChem BioAssay (NCI).
